Reference: patent publication US20240041042A1, “1-(PYRIDYL)-5-AZINYLPYRAZOLE DERIVATIVES, AND THEIR USE FOR CONTROL OF UNDESIRED PLANT GROWTH” (Bayer Aktiengesellschaft, priority 2020, published 2024)
Where two headings read alike, the source gives them in different places.

What was measured:
Assay type in all cases: in vivo
[1] = test system: Alopecurus myosuroides (ALOMY); test: Pre-emergence herbicidal action against ALOMY; conditions: scored visually after about 3 weeks, 100% = plants have died
How it was run: (§1)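 Greenhouse pot trial: seeds sown, soil-covered, sprayed before emergence with compound in water (0.5% additive; 600 l/ha; ≤320 g/ha). Scoring visual, ~3 weeks, 0–100% scale vs untreated.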

[2] = test system: Amaranthus retroflexus (AMARE); test: Pre-emergence herbicidal action against AMARE; conditions: visual scoring after about 3 weeks vs untreated controls
How it was run: as §1

[3] = test system: Avena fatua (AVEFA); test: Pre-emergence herbicidal action against AVEFA; conditions: 320 g/ha, visual scoring after about 3 weeks vs untreated controls
How it was run: as §1

[4] = test system: Digitaria sanguinalis (DIGSA); test: Pre-emergence herbicidal action against DIGSA
How it was run: as §1

[5] = test system: Echinochloa crus-galli (ECHCG); test: Pre-emergence herbicidal action against ECHCG; conditions: dosage 320 g/ha
How it was run: as §1

[6] = test system: Lolium rigidum (LOLRI); test: Pre-emergence herbicidal action against LOLRI
How it was run: as §1

[7] = test system: Polygonum convolvulus (POLCO); test: Pre-emergence herbicidal action against POLCO
How it was run: as §1

[8] = test system: Setaria viridis (SETVI); test: Pre-emergence herbicidal action against SETVI
How it was run: as §1

[9] = test system: Verconica persica (VERPE); test: Pre-emergence herbicidal action against VERPE; conditions: dosage 320 g/ha
How it was run: as §1

[10] = test system: Viola tricolor (VIOTR); test: Pre-emergence herbicidal action against VIOTR
How it was run: as §1

[11] = test system: Oryza sativa (ORYSA); conditions: pre-emergence, crop plant compatibility, in comparison to untreated controls
How it was run: (§2)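 Scoring: visual, % of untreated control, about 3 weeks after a pre-emergence application to the soil surface. Application used WP or EC formulations diluted in water with 0.5% additive at 600 l/ha; dosage levels are marked by suffixes a, b and c.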

[12] = test system: Abutilon theophrasti (ABUTH); test: Post-emergence herbicidal action against ABUTH; conditions: 80 g/ha, visual rating about 3 weeks after treatment vs untreated controls (100% = plants have died, 0% = like control plants)
How it was run: (§3)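 Greenhouse plants sprayed at the one-leaf stage, 2–3 weeks after sowing, with WP or EC formulations plus 0.5% additive at 600 l/ha water. Activity rated visually after about 3 weeks versus untreated controls (100% = dead, 0% = like control), at 320 g/ha or lower.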

[13] = test system: Alopecurus myosuroides (ALOMY); test: Post-emergence herbicidal action against ALOMY; conditions: 80 g/ha, visual rating about 3 weeks after treatment vs untreated controls (100% = plants have died, 0% = like control plants)
How it was run: as §3

[14] = test system: Amaranthus retroflexus (AMARE); test: Post-emergence herbicidal action against AMARE; conditions: 80 g/ha, visual rating about 3 weeks after treatment vs untreated controls (100% = plants have died, 0% = like control plants)
How it was run: as §3

[15] = test system: Avena fatua (AVEFA); test: Post-emergence herbicidal action against AVEFA; conditions: 80 g/ha, visual rating about 3 weeks after treatment
How it was run: as §3

[16] = test system: Echinochloa crus-galli (ECHCG); test: Post-emergence herbicidal action against ECHCG; conditions: dosage 80 g/ha
How it was run: as §3

[17] = test system: Lolium rigidum (LOLRI); test: Post-emergence herbicidal action against LOLRI; conditions: dosage 80 g/ha
How it was run: as §3

[18] = test system: Matricaria inodora (MATIN); test: Post-emergence herbicidal action against MATIN; conditions: dosage 80 g/ha
How it was run: as §3

[19] = test system: Pharbitis purpurea (PHBPU); test: Post-emergence herbicidal action against PHBPU; conditions: dosage 80 g/ha
How it was run: as §3

[20] = test system: Polygonum convolvulus (POLCO); test: Post-emergence herbicidal action against POLCO; conditions: dosage 80 g/ha
How it was run: as §3

[21] = test system: Verconica persica (VERPE); test: Post-emergence herbicidal action against VERPE; conditions: dosage 80 g/ha
How it was run: as §3

[22] = test system: Viola tricolor (VIOTR); test: Post-emergence herbicidal action against VIOTR; conditions: 80 g/ha
How it was run: as §3

[23] = test system: Oryza sativa (ORYSA); conditions: crop plant compatibility
How it was run: (§4)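 Visual rating (% effect vs. untreated plants; 100% = plant death) made about 3 weeks after treatment. Plants had been sprayed at one-leaf stage, 2–3 weeks post-sowing, with aqueous WP/EC preparations containing 0.5% additive, 600 l/ha water volume; a, b, c mark dose levels.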

[24] = test system: Pharbitis purpurea (PHBPU); test: Pre-emergence herbicidal action against PHBPU; conditions: dosage 320 g/ha
How it was run: as §1

[25] = test system: Zea mays (ZEAMX); conditions: pre-emergence, 80 g/ha, crop plant compatibility, in comparison to untreated controls
How it was run: as §2

[26] = test system: Triticum aestivum (TRZAS); conditions: crop plant compatibility, 20 g/ha, effect vs untreated controls
How it was run: as §4

[27] = 80 g/ha, visual scoring after about 3 weeks vs untreated controls
[28] = 20 g/ha, effect vs untreated controls
[29] = 80 g/ha, effect in comparison to untreated controls

| Compound | Pre-emergence action against ALOMY ([1]; 320 g/ha) | Pre-emergence action against AMARE in % ([2]; 80 g/ha) | Pre-emergence action against AMARE in % ([2]; 320 g/ha) | Pre-emergence action against AVEFA in % [3] | Pre-emergence action against DIGSA in % [4, 27] | Pre-emergence action against DIGSA in % ([4]; dosage 320 g/ha) | Pre-emergence action against LOLRI in % ([6]; dosage 320 g/ha) | Pre-emergence action against SETVI in % ([8]; dosage 320 g/ha) | Pre-emergence action against VERPE in % [9] | Pre-emergence action against VIOTR in % ([10]; 320 g/ha, Viola tricolor) | Pre-emergence action against ORYSA in % ([11]; 80 g/ha) | Post-emergence action against ABUTH in % [12] | Post-emergence action against ALOMY in % [13] | Post-emergence action against AMARE in % [14] | Post-emergence action against PHBPU in % [19] | Post-emergence action against VERPE in % [21] | Post-emergence action against ORYSA in % [23, 28] | Post-emergence action against ORYSA in % [23, 29] | other results |
| --- | --- | --- | --- | --- | --- | --- | --- | --- | --- | --- | --- | --- | --- | --- | --- | --- | --- | --- | --- |
| COC(=O)[C@@H](C)NC(=O)COc1nn(-c2ccccn2)c(-c2ccnc(F)c2)c1Br [Example I-59] | 100% | 100% | 100% | 80% | 100% | 100% | 100% | 100% | 90% | 90% | 20% | 80% | 90% | 90% | 80% | 90% | 0% | 0% | Pre-emergence action against ALOMY ([1]; 80 g/ha): 80%; Pre-emergence action against ECHCG in % [5]: 100%; Pre-emergence action against LOLRI in % ([6]; dosage 80 g/ha): 80%; Pre-emergence action against POLCO in % ([7]; dosage 80 g/ha): 80%; Pre-emergence action against POLCO in % ([7]; dosage 320 g/ha): 90%; Pre-emergence action against SETVI in % ([8]; dosage 80 g/ha): 90%; Pre-emergence action against VIOTR in % ([10]; dosage 80 g/ha): 90%; Post-emergence action against AVEFA in % [15]: 80%; Post-emergence action against ECHCG in % [16]: 80%; Post-emergence action against LOLRI in % [17]: 80%; Post-emergence action against MATIN in % [18]: 80%; Post-emergence action against POLCO in % [20]: 80%; Post-emergence action against VIOTR in % [22]: 80% |
| O=C(O)COc1nn(-c2ccccn2)c(-c2ccc(F)nc2)c1I [Example I-103] | 100% | 80% | 90% | 80% | – | – | 100% | 90% | 90% | 90% | 0% | 80% | – | 80% | 80% | 80% | 0% | 0% | Pre-emergence action against PHBPU in % [24]: 80%; Pre-emergence action against ZEAMX in % [25]: 0%; Post-emergence action against TRZAS in % [26]: 0% |
| CCOC(=O)CN(C)S(=O)(=O)NC(=O)COc1nn(-c2ccccn2)c(-c2ccc(F)nc2)c1Br [Example I-120] | 80% | – | 90% | – | 100% | 100% | 80% | 100% | 90% | 80% | 0% | 80% | 100% | 80% | 80% | 90% | 10% | 20% | Pre-emergence action against ORYSA in % ([11]; 320 g/ha): 10% |
